From patent publication US12612387B2, “RAS inhibitors and methods of using the same” (Jazz Pharmaceuticals Ireland Limited, priority 2020, dated 2026)

What was measured:
K-RAS G12D = target: T1, K-RAS G12D (Homo sapiens, UniProt P01116, G12D); test: Compound depletion assay, K-RAS G12D; assay type: binding; conditions: G12D protein 20 μM, compound 8 μM, 25° C.
T1 construct: His tag; purchased Stratech
Description: (§1) Compound Depletion Assay Method
(§2) Lyophilized human K-RAS (12 Cys) protein (His tag) and human K-RAS (12 Asp) protein (His tag) were purchased from Stratech and reconstituted at 30 μM in water. The protein concentration of K-RAS G12C and K-RAS G12D was adjusted to 20 μM in K-RAS Assay Buffer (20 mM HEPES pH 7.5, 150 mM NaCl, 1 mM MgCl2). A 49 μl aliquot of protein solution was transferred to 1.5 ml eppendorfs and incubated at room temperature for 10 minutes. A 1 μl aliquot of compound solution in DMSO was added to the protein solutions in the 1.5 ml eppendorfs to initiate the reaction, with a final assay compound concentration of 8 μM. Reactions were agitated at 25° C., 700 rpm. At each time point (0, 30, 180, 360, 1440 minutes), 10 μl of the reaction mixture was removed, added to 30 μl quench solution (0.3% formic acid, 75 nM propranolol in acetonitrile) to stop the reaction and stored at 4° C. Once all reactions were quenched, the samples were centrifuged at 16000 g for 10 minutes to pellet the protein and salts. A 10 μl aliquot of supernatant containing compound was diluted in 50:50 acetonitrile:H2O in a 96 well plate. The plates were heat sealed and the samples analysed by LC-MS/MS to determine the concentration of compound remaining in the samples. To determine the reaction progress, the compound signal was normalized to the internal standard signal (propranolol). The decrease in free compound concentration is shown as a percentage over time, with the […] at time zero fixed at one hundred percent. Compound is assumed to be completely depleted when no longer detectable with a double blank sample as reference.

K-RAS G12C = target: T2, K-RAS G12C (Homo sapiens, UniProt P01116, G12C); test: Compound depletion assay, K-RAS G12C; assay type: binding; conditions: G12C protein 20 μM, compound 8 μM, 25° C.
T2 construct: His tag; purchased Stratech
Description: as §1, §2

T2 sequence (P01116 1-188 isoform P01116-2 G12C): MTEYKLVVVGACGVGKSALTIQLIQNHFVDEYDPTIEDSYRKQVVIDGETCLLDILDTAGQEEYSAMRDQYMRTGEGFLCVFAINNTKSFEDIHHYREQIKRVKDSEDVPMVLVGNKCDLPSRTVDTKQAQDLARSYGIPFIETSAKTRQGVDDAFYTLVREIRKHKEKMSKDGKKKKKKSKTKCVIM
T1 sequence (P01116 1-188 isoform P01116-2 G12D): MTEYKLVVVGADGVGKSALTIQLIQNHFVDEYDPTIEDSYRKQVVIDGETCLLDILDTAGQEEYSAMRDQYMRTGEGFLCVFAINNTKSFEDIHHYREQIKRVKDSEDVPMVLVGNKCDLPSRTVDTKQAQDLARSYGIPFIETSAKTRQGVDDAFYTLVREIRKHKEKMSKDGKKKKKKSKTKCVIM

| SMILES | 30 min Category (compound remaining at timepoint) (K-RAS G12D) | 3 hr Category (compound remaining at timepoint) (K-RAS G12D) | 6 hr Category (compound remaining at timepoint) (K-RAS G12D) | 30 min Category (compound remaining at timepoint) (K-RAS G12C) | 3 hr Category (compound remaining at timepoint) (K-RAS G12C) | 6 hr Category (compound remaining at timepoint) (K-RAS G12C) | 24 hr Category (compound remaining at timepoint) (K-RAS G12D) | 24 hr Category (compound remaining at timepoint) (K-RAS G12C) |
| --- | --- | --- | --- | --- | --- | --- | --- | --- |
| C=CC(=O)N1CCN(c2cc(C(=O)Nc3cc(O)cc4ccccc34)nc(OCC3CN(C)CCO3)n2)C[C@@H]1CC#N (stereo in doubt) [Example 52, 6-[(3S)-3-(cyanomethyl)-4-prop-2-enoyl-piperazin-1-yl]-N-(3-hydroxy-1-naphthyl)-2-[[(2R)-4-methylmorpholin-2-yl]methoxy]pyrimidine-4-carboxamide] | A (≥70% compound remaining at timepoint) | A (≥70% compound remaining at timepoint) | A (≥70% compound remaining at timepoint) | C (≤30% compound remaining at timepoint) | C (≤30% compound remaining at timepoint) | C (≤30% compound remaining at timepoint) |  |  |
| C=CC(=O)N1CCN(c2cc(C(=O)Nc3cccc4ccccc34)nc(OC[C@@H]3CCCN3C)n2)CC1 [Example 01, 2-[[(2S)-1-methylpyrrolidin-2-yl]methoxy]-N-(1-naphthyl)-6-(4-prop-2-enoylpiperazin-1-yl)pyrimidine-4-carboxamide] |  | A (≥70% compound remaining at timepoint) |  |  | A (≥70% compound remaining at timepoint) |  | A (≥70% compound remaining at timepoint) | B (30%-70% compound remaining at timepoint) |
| C=CC(=O)N1CCN(c2cc(C(=O)Nc3cccc4ccccc34)nc(OC[C@@H]3CCCN3C)n2)C[C@@H]1CC#N [Example 02, 6-[(3S)-3-(cyanomethyl)-4-prop-2-enoyl-piperazin-1-yl]-2-[[(2S)-1-methylpyrrolidin-2-yl]methoxy]-N-(1-naphthyl)pyrimidine-4-carboxamide] |  | A (≥70% compound remaining at timepoint) |  |  | B (30%-70% compound remaining at timepoint) |  | A (≥70% compound remaining at timepoint) | B (30%-70% compound remaining at timepoint) |
| C=CC(=O)N1CCN(c2cc(C(=O)Nc3cc(O)cc4ccccc34)nc(OC[C@@H]3CCCN3C)n2)CC1 [Example 03, N-(3-hydroxy-1-naphthyl)-2-[[(2S)-1-methylpyrrolidin-2-yl]methoxy]-6-(4-prop-2-enoylpiperazin-1-yl)pyrimidine-4-carboxamide] |  | A (≥70% compound remaining at timepoint) |  | B (30%-70% compound remaining at timepoint) | C (≤30% compound remaining at timepoint) | C (≤30% compound remaining at timepoint) | A (≥70% compound remaining at timepoint) | C (≤30% compound remaining at timepoint) |
| C=CC(=O)N1CCN(c2cc(C(=O)Nc3cccc(O)c3)nc(OC[C@@H]3CCCN3C)n2)CC1 [Example 04, N-(3-hydroxyphenyl)-2-[[(2S)-1-methylpyrrolidin-2-yl]methoxy]-6-(4-prop-2-enoylpiperazin-1-yl)pyrimidine-4-carboxamide] |  | A (≥70% compound remaining at timepoint) |  |  | A (≥70% compound remaining at timepoint) |  | A (≥70% compound remaining at timepoint) | A (≥70% compound remaining at timepoint) |
| C=CC(=O)N1CCN(c2cc(C(=O)Nc3ccc(O)cc3)nc(OC[C@@H]3CCCN3C)n2)CC1 [Example 05] |  | A (≥70% compound remaining at timepoint) |  |  | A (≥70% compound remaining at timepoint) |  | A (≥70% compound remaining at timepoint) | A (≥70% compound remaining at timepoint) |
| C=CC(=O)N1CCN(c2cc(C(=O)Nc3ccccc3O)nc(OC[C@@H]3CCCN3C)n2)CC1 [Example 06, N-(2-hydroxyphenyl)-2-[[(2S)-1-methylpyrrolidin-2-yl]methoxy]-6-(4-prop-2-enoylpiperazin-1-yl)pyrimidine-4-carboxamide] |  | A (≥70% compound remaining at timepoint) |  |  | A (≥70% compound remaining at timepoint) |  | A (≥70% compound remaining at timepoint) | A (≥70% compound remaining at timepoint) |
| C=CC(=O)N1CCN(c2cc(C(=O)Nc3cccc4ccccc34)nc(OCCN3CCOCC3)n2)CC1 [Example 07, 2-(2-morpholinoethoxy)-N-(1-naphthyl)-6-(4-prop-2-enoylpiperazin-1-yl)pyrimidine-4-carboxamide] |  | A (≥70% compound remaining at timepoint) |  |  | A (≥70% compound remaining at timepoint) |  | A (≥70% compound remaining at timepoint) | A (≥70% compound remaining at timepoint) |
| C=CC(=O)N1CCN(c2cc(C(=O)Nc3cc(O)cc4ccccc34)nc(OC[C@@H]3CCCN3C)n2)C[C@@H]1CC#N [Example 08, 6-[(3S)-3-(cyanomethyl)-4-prop-2-enoyl-piperazin-1-yl]-N-(3-hydroxy-1-naphthyl)-2-[[(2S)-1-methylpyrrolidin-2-yl]methoxy]pyrimidine-4-carboxamide] | A (≥70% compound remaining at timepoint) | A (≥70% compound remaining at timepoint) | A (≥70% compound remaining at timepoint) | B (30%-70% compound remaining at timepoint) | C (≤30% compound remaining at timepoint) | C (≤30% compound remaining at timepoint) | A (≥70% compound remaining at timepoint) | C (≤30% compound remaining at timepoint) |
| C=CC(=O)N1CCN(c2cc(C(=O)Nc3cccc4ccccc34)nc(-c3cccnc3)n2)CC1 [Example 09, N-(1-naphthyl)-6-(4-prop-2-enoylpiperazin-1-yl)-2-(3-pyridyl)pyrimidine-4-carboxamide] | A (≥70% compound remaining at timepoint) | A (≥70% compound remaining at timepoint) | A (≥70% compound remaining at timepoint) |  | A (≥70% compound remaining at timepoint) | A (≥70% compound remaining at timepoint) | A (≥70% compound remaining at timepoint) | B (30%-70% compound remaining at timepoint) |
